Measurements: patent US9376406B2, “uPAR-uPA interaction inhibitors and methods for treating cancer” (Indiana University Research and Technology Corporation, priority 2011, dated 2016)
“Also recorded” adds a separate entry of the source.

Columns and labels:
Type in all cases: cell-based, human
[1] = system: H1299 cells; experiment: Immunofluorescence imaging of surface uPA and uPAR; conditions: H1299, 100 μM, 30 min, vs DMSO control
Procedure: (§1) Immunofluorescence Imaging. An immunofluorescence approach was employed to establish the specificity of the compounds. This consisted of using a fluorescently labeled secondary antibody to probe for the presence of an anti-uPA antibody bound to uPA at the cell surface of MDA-MB-231 and H1299 cancer cells. […] Non-specific bindings were blocked with 5% normal goat serum, 5% BSA, 0.01% Triton X-100 in PBS at RT for 1 h, the cells were then incubated overnight at 4° C. with rabbit polyclonal anti-human uPA or mouse monoclonal anti-human uPAR antibodies (both at a dilution of 1:100 in 1% BSA/PBS). After another washing step with PBS three times, the cells were incubated with anti-rabbit IgG conjugated with Alexa 594 Texas Red (Invitrogen Corporation, Carlsbad, Calif.) or goat anti-mouse IgG conjugated with Alexa Fluor 488 (Invitrogen Corporation, Carlsbad, Calif.), both at a dilution of 1:1000 in 1% BSA/PBS at RT for 1 h in the dark. Images were acquired using a Nikon swept-filed confocal microscope.
(§2) Endogenous uPAR and uPA in the non-small cell lung cancer (NSCLC) cell line H1299 and in a breast cancer cell line MDA-MB-231 were immunostained with selective antibodies and visualized by staining with fluorescently-conjugated secondary antibodies. Cells are stained with (a) a monoclonal antibody against uPAR or (b) a polyclonal antibody against uPA.
(§3) In cells with clear surface staining, the surface of each cell was outlined using uPAR staining and then the pixel immunodensity for uPAR and uPA were determined using Nikon elements software in the outlined regions. Only cells where the cell membrane was clearly discernible were included in the analysis. Each value represents the mean±S.E. from 26-30 cells taken from three different fields from two independent samples. *significant difference from the DMSO control (p<0.001, Student's t test). In the absence of any compound (0.1% DMSO; vehicle control) both uPAR and uPA were detected in large intracellular clusters as well as on surface membranes of MDA-MB-231 cells.

[2] = system: MDA-MB-231 cells; experiment: Immunofluorescence imaging of surface uPA and uPAR; conditions: MDA-MB-231, 100 μM, 30 min, vs DMSO control
Procedure: as §1, §2, §3

[3] = system: H1299 cells; experiment: Transwell (Boyden chamber) migration assay
Procedure: (§4) Transwell Migration Assay. A 24 well transwell plates (Costar, Corning, N.Y.) were coated with fibronectin. After 4 h of serum starvation, medium containing the same amount of compounds or DMSO were added to the upper chamber and incubated at 37° C. for 8 h. The number of migrated cells was counted in 10 separate 200×fields and averaged over three independent experiments. Cytotoxicity of the compounds on the cells was measured at the same concentrations used in the migration assay during the same incubation time. MTT was added 2 h before measuring.
as §4, with “A” for “Transwell Migration Assay. A”, “30 ng/μl of fibronectin at 4° C. overnight. 500 μl of 10% FBS RPMI-1640 medium containing compounds or 1% DMSO control was added to the lower chamber.” for “fibronectin.”, “starvation, 5×10^4 cells in 250 μl of 0.1% FBS” for “starvation,”, “h. […]” for “h.”, “time,” for “time.”, “measuring. […]” for “measuring.”

[4] = system: MDA-MB-231 cells; experiment: Transwell (Boyden chamber) migration assay
Procedure: as §4
as §4, with “A” for “Transwell Migration Assay. A”, “30 ng/μl of fibronectin at 4° C. overnight. 500 μl of 10% FBS RPMI-1640 medium containing compounds or 1% DMSO control was added to the lower chamber.” for “fibronectin.”, “starvation, 5×10^4 cells in 250 μl of 0.1% FBS” for “starvation,”, “h. […]” for “h.”, “time,” for “time.”, “measuring. […]” for “measuring.”

[5] = system: H1299 cells; experiment: Cytotoxicity (MTT)
Procedure: as §4
(§5) A 24 well transwell plates (Costar, Corning, N.Y.) were coated with 30 ng/μl of fibronectin at 4° C. overnight. 500 μl of 10% FBS RPMI-1640 medium containing compounds or 1% DMSO control was added to the lower chamber. After 4 h of serum starvation, 5×10^4 cells in 250 μl of 0.1% FBS medium containing the same amount of compounds or DMSO were added to the upper chamber and incubated at 37° C. for 8 h. Non-invaded cells on the top of the transwell were scrapped-off with a cotton swab, and the cells that had migrated through the filter were fixed in methanol for 30 min, stained with Hematoxylin Stain (Fisher, SH30-500D) for 1 h. The number of migrated cells was counted in 10 separate 200×fields and averaged over three independent experiments. Cytotoxicity of the compounds on the cells was measured at the same concentrations used in the migration assay during the same incubation time, MTT was added 2 h before measuring.
(§6) Ten fields of unit area on each membrane were counted for cell numbers (magnification, 200×). […] The effect of the compound appears to be more pronounced in MDA-MB-231 cells compared with H1299. The level of toxicity of the compounds is measured at each concentration within the timescale of the invasion experiment to ensure that the observed effects are not due to cytotoxicity (FIG. 3(a)).

[6] = system: MDA-MB-231 cells; experiment: Cytotoxicity (MTT)
Procedure: as §4, §5, §6

Compound: CC1CC(C)CN(c2cc(Nc3ccccc3C(=O)O)c3c4c(onc24)-c2ccccc2C3=O)C1 (stereo not shown) [IPR-456]
- immunostaining pattern of uPAR [1]: no change in the immunostaining pattern of uPAR
- uPA staining at the cell surface [1]: significant reduction of uPA staining at the cell surface; also recorded: impairs binding of uPA to uPAR at the cell membrane
- immunostaining pattern of uPAR [2]: no change in the immunostaining pattern of uPAR
- uPA staining at the cell surface [2]: significant reduction of uPA staining at the cell surface; also recorded: impairs binding of uPA to uPAR at the cell membrane
- migration, Boyden chamber [3]: blocked migration in a dose-dependent manner
- migration, Boyden chamber [4]: blocked migration in a dose-dependent manner
- cytotoxicity ([5]; H1299, cells harvested from migration assays): none was observed
- cytotoxicity ([5]; H1299, timescale of invasion experiment, concentrations reaching 200 μM): did not exhibit undue toxicity
- cytotoxicity ([6]; MDA-MB-231, cells harvested from migration assays): none was observed
- cytotoxicity ([6]; MDA-MB-231, timescale of invasion experiment, concentrations reaching 200 μM): did not exhibit undue toxicity
